Like-named read-outs stand apart in the source and are kept apart here. Square brackets hold non-standard residues; d marks the D form. Peptide text beside a SMILES is read from it. * marks the point of attachment. Phe(4-CH2SO3H) = N[C@@H](Cc1ccc(CS(=O)(=O)O)cc1)C(=O)O; Phe(4-NO2) = N[C@@H](Cc1ccc([N+](=O)[O-])cc1)C(=O)O; Phe(4-CH2NH2) = NCc1ccc(C[C@H](N)C(=O)O)cc1; Tyr(3-Cl) = N[C@@H](Cc1ccc(O)c(Cl)c1)C(=O)O; Phe(4-NH2) = Nc1ccc(C[C@H](N)C(=O)O)cc1; Dmt = Cc1cc(O)cc(C)c1C[C@H](N)C(=O)O; Tyr(BN∗,3-Cl) = not defined here; hPhe = N[C@@H](CCc1ccccc1)C(=O)O; Hexanoyl = CCCCCC(=O)*; Pentanoyl = CCCCC(=O)*; Ahx = NCCCCCC(=O)O
Key:
mice [1] = test: Tail flick assay, peptide alone, intracerebroventricular injection
human ORL1 [2] = molecular target: T1, human ORL1 (Homo sapiens, UniProt P41146); test: Antagonism of nociceptin-stimulated [35S]GTPγS binding (inhibition, Schild analysis); format: biochemical
T1 construct: expressed in transfected cells; host or cells: CHO cells (G418-selected)
T1 sequence (P41146 whole entry): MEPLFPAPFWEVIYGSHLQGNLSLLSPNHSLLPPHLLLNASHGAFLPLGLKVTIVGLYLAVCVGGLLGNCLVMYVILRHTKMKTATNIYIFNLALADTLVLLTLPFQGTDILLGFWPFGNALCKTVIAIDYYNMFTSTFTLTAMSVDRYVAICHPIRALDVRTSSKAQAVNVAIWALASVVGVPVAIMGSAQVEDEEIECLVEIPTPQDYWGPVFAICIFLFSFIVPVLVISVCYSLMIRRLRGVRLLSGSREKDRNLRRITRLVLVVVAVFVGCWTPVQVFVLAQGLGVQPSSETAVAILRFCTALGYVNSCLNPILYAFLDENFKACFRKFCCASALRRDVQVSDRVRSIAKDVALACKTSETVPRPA

human ORL1 [3] = molecular target: T1, human ORL1; test: [3H]nociceptin binding to membranes of CHO cells transfected with human ORL1; details: for Hill Coefficient: Table 5
mice [4] = test: Tail flick assay, peptide combined with morphine and/or N/OFQ (morphine-induced analgesia); format: in vivo
Description: The modified Boniferroni Test was used for these planned comparisons (p value was set at P<0.036). Doses were determined based on the potency of the compounds tested.
The antagonist was next assayed for the ability to reverse the inhibition of morphine-induced analgesia. In this assay, the control received morphine alone, while test animals received morphine +3 nmol of the antagonist, morphine +10 nmol of the antagonist. […] For each of these animals, response was measured at 5, 10, and 20 minutes after intracerebroventricular injection.
The agonist VII-87-B was further investigated by evaluating its ability to reverse morphine-induced analgesia. In this assay, the control animal received 10 nmols of morphine alone, while test animals received morphine +0.1 nmol of the agonist, morphine +1.0 nmol of the agonist, or morphine +10.0 nmol of the agonist. For each of these animals, response was measured at 5, 10, and 20 minutes after intracerebroventricular injection.
The agonist VII-39-D was then further investigated by evaluating its ability to reverse morphine-induced analgesia. In this assay, the control animal received 10 nmols of morphine alone, while test animals received morphine +0.1 nmol of the agonist, morphine +1.0 nmol of the agonist, or morphine +10.0 nmol of the agonist. For each of these animals, response was measured at 5, 10, and 20 minutes after intracerebroventricular injection.

human ORL1 [5] = molecular target: T1, human ORL1; test: Stimulation of [35S]GTPγS binding in membranes of CHO cells transfected with human ORL-1; format: biochemical; details: for EC50 ± SEM, stimulation of [35S]GTPγS binding: Table 6; for agonist/antagonist character at ORL1: in words; for Emax: read-out: % Stimulation ± SEM of [35S]GTPγS binding; for [35S]GTPγS Binding Percent Stimulation: relative to nociceptin
Description: First, CHO cells transfected with human ORL-1 are scraped from tissue culture dishes into 20 mM HEPES, 1 mM EDTA, and then centrifuged at 500×g for 10 minutes. The cells are then re-suspended in this buffer and homogenized using a Polytron Homogenizer.
The cellular homogenate is next centrifuged at 20,000×g for 20 minutes. Following this, the resulting pellet is re-suspended in a buffer containing 20 mM HEPES, 10 mM MgCl2, and 100 mM NaCl, having a resulting pH of 7.4. The suspension is then re-centrifuged at 20,000×g and suspended once more in the above-listed buffer. The pellet may be frozen at −70° C. prior to the final centrifugation. For the binding assay, membranes (10-20 μg protein) are incubated with [^35S]GTPγγS (50 pM), GDP (usually 10 μM), and the desired compound. The total volume of the mixture is 1 ml, which is incubated for 60 min at 25° C.
Following incubation, samples are filtered over glass fiber filters and counted. […]
In these [^35S]GTPγS assays, binding was conducted as described above. EC50 values and percent stimulation were determined using the program Prism.

[6] = In vivo test for analgesic activity and potentiation of morphine analgesia

Compound | Hill Coefficient (human ORL1 [3]) | EC50 ± SEM, stimulation of [35S]GTPγS binding (human ORL1 [5]) | Emax (human ORL1 [5]) | also measured
CCCCC(=O)N[C@@H](CCCNC(=N)N)C(=O)N[C@@H](Cc1ccc(O)cc1)C(=O)N[C@@H](Cc1ccc(O)cc1)C(=O)N[C@@H](CCCNC(=N)N)C(=O)N[C@@H](Cc1c[nH]c2ccccc12)C(=O)N[C@@H](CCCNC(=N)N)C(N)=O [VII-7-B, Pentanoyl-Arg-Tyr-Tyr-Arg-Trp-Arg-NH2] (Pentanoyl-RYYRWR-NH2) | 0.8 | FLAT | < 20% | analgesic effect (% antinociception) (mice [1]; 10.0 and 30.0 nmol icv, 10 and 20 minutes post-injection): showed analgesic properties; shift of nociceptin dose response curve (human ORL1 [2]; FIG. 9): dose-dependent parallel shift; pA2, Schild analysis (human ORL1 [2]; nociceptin dose response curve): 8.99±0.05; slope, Schild analysis (human ORL1 [2]; nociceptin dose response curve): −1.02; effect on morphine-induced analgesia (mice [4]; 10 nmol alone or with N/OFQ, 5 minutes post-injection): reduction in morphine-induced analgesia; effect on nociceptin action on morphine analgesia (mice [4]; 10 and 20 minutes post injection): did not alter the effects of nociceptin; reversal of nociceptin's inhibition of morphine-induced analgesia (mice [4]; morphine + nociceptin + 3 or 10 nmol antagonist icv, FIG. 11): did not reverse the inhibition of morphine-induced analgesia; agonist/antagonist character at ORL1 (human ORL1 [5]): very potent antagonist
Ac-Arg-Tyr(BN*, 3-Cl)-Tyr-Arg-Trp-Arg-NH2 (Ac-R[Tyr(BN∗,3-Cl)]YRWR-NH2; reading uncertain; also: printed as Ac-Arg-Tyr(BN*, 3-Cl)-Tyr-Arg-Trp-Arg-NH2) [VII-39-D] | 1.03 |  |  | effect on nociception (% antinociception) (mice [1]; 0.1, 1.0 or 10.0 nmol icv, 5, 10 and 20 minutes post-injection): did not induce anti- or pro-nociception; effect on morphine-induced analgesia (mice [4]; morphine 10 nmol + 1.0 and 10 nmol agonist icv, 5, 10 and 20 minutes): attenuation of morphine-induced analgesia; agonist/antagonist character at ORL1 (human ORL1 [5]): full agonist
CC(=O)N[C@@H](CCCNC(=N)N)C(=O)N[C@@H](Cc1ccc(O)cc1)C(=O)N[C@@H](Cc1c(C)cc(O)cc1C)C(=O)N[C@@H](CCCNC(=N)N)C(=O)N[C@@H](Cc1c[nH]c2ccccc12)C(=O)N[C@@H](CCCNC(=N)N)C(N)=O [VII-73-A, Ac-Arg-Tyr-Tyr(2,6-di-Me)-Arg-Trp-Arg-NH2] (Ac-RY[Dmt]RWR-NH2) | 0.95 |  | 52.7 ± 0.175% | 
CC(=O)N[C@@H](CCCNC(=N)N)C(=O)N[C@@H](Cc1ccc(O)cc1)C(=O)N[C@@H](Cc1ccc([N+](=O)[O-])cc1)C(=O)N[C@@H](CCCNC(=N)N)C(=O)N[C@@H](Cc1c[nH]c2ccccc12)C(=O)N[C@@H](CCCNC(=N)N)C(N)=O [VII-63-B, Ac-Arg-Tyr-Phe(4-NO2)-Arg-Trp-Arg-NH2] (Ac-RY[Phe(4-NO2)]RWR-NH2) | 1.01 |  | 43.2 ± 0.59% | 
CC(=O)N[C@@H](CCCNC(=N)N)C(=O)N[C@@H](CCc1ccccc1)C(=O)N[C@@H](CCc1ccccc1)C(=O)N[C@@H](CCCNC(=N)N)C(=O)N[C@@H](Cc1c[nH]c2ccccc12)C(=O)N[C@@H](CCCNC(=N)N)C(N)=O [VII-49-B, Ac-Arg-hPhe-hPhe-Arg-Trp-Arg-NH2] (Ac-R[hPhe][hPhe]RWR-NH2) | 0.94 | FLAT | < 20% | 
COc1ccc(C[C@H](NC(=O)[C@H](CCCNC(=N)N)NC(C)=O)C(=O)N[C@@H](Cc2ccc(O)cc2)C(=O)N[C@@H](CCCNC(=N)N)C(=O)N[C@@H](Cc2c[nH]c3ccccc23)C(=O)N[C@@H](CCCNC(=N)N)C(N)=O)cc1 [VII-35-C, Ac-Arg-Tyr(4-Me)-Tyr-Arg-Trp-Arg-NH2] (Ac-RY(Me)YRWR-NH2) | 0.75 |  | 52.1 ± 0.6% | 
Ac-RY(D)YR(D)WRNH2 [IV-12-B] |  |  |  | IC50 (human ORL1 [3]; read-out: [3H]nociceptin Binding IC50, Table 1): 1140 nM; EC50 (human ORL1 [5]; Table 1, read-out: [35S]GTPγS Binding EC50): > 10000 nM; [35S]GTPγS Binding Percent Stimulation (human ORL1 [5]; Table 1): <10%
CC(=O)N[C@@H](CCCNC(=N)N)C(=O)N[C@@H](Cc1ccc(O)cc1)C(=O)N[C@@H](Cc1ccc(CN)cc1)C(=O)N[C@@H](CCCNC(=N)N)C(=O)N[C@@H](Cc1c[nH]c2ccccc12)C(=O)N[C@@H](CCCNC(=N)N)C(N)=O [VII-79-A, Ac-Arg-Tyr-Phe(4-CH2NH2)-Arg-Trp-Arg-NH2] (Ac-RY[Phe(4-CH2NH2)]RWR-NH2) | 0.89 | FLAT | < 20% | 
β-Nva-Arg-Tyr-Tyr-Arg-Trp-Arg-NH2 (βNva-RYYRWR-NH2) [VII-2-A] | 1.0 | FLAT |  | 
CC(=O)N[C@@H](CCCNC(=N)N)C(=O)N[C@@H](Cc1ccc(O)cc1)C(=O)N[C@@H](Cc1ccc(CS(=O)(=O)O)cc1)C(=O)N[C@@H](CCCNC(=N)N)C(=O)N[C@@H](Cc1c[nH]c2ccccc12)C(=O)N[C@@H](CCCNC(=N)N)C(N)=O [VII-75-B, Ac-Arg-Tyr-Phe(4-CH2SO3H)-Arg-Trp-Arg-NH2] (Ac-RY[Phe(4-CH2SO3H)]RWR-NH2) | 0.75 | FLAT | < 20% | 
CC(=O)N[C@@H](CCCNC(=N)N)C(=O)N[C@@H](Cc1ccc(O)c(Cl)c1)C(=O)N[C@@H](Cc1ccc(O)cc1)C(=O)N[C@@H](CCCNC(=N)N)C(=O)N[C@@H](Cc1c[nH]c2ccccc12)C(=O)N[C@@H](CCCNC(=N)N)C(N)=O [VII-87-B, Ac-Arg-Tyr(3-Cl)-Tyr-Arg-Trp-Arg-NH2] (Ac-R[Tyr(3-Cl)]YRWR-NH2) |  |  | 72% | effect on nociception (% antinociception) (mice [1]; 10 nmol icv, 5, 10 and 20 minutes post-injection): induced pro-nociception; reversal of morphine-induced analgesia (mice [4]; morphine 10 nmol + 0.1, 1.0, 10.0 nmol agonist icv, at 10 and 20 minutes with 10 nmol): dose-dependent reversal of morphine-induced analgesia; agonist/antagonist character at ORL1 (human ORL1 [5]): agonist
COc1ccc(C[C@H](NC(=O)[C@H](CCCNC(=N)N)NC(C)=O)C(=O)N[C@@H](Cc2ccc(OC)cc2)C(=O)N[C@@H](CCCNC(=N)N)C(=O)N[C@@H](Cc2c[nH]c3ccccc23)C(=O)N[C@@H](CCCNC(=N)N)C(N)=O)cc1 [VII-37-B, Ac-Arg-Tyr(4-Me)-Tyr(4-Me)-Arg-Trp-Arg-NH2] (Ac-RY(Me)Y(Me)RWR-NH2) | 0.82 | FLAT | < 20% | 
CC(=O)N[C@@H](CCCNC(=N)N)C(=O)N[C@@H](Cc1ccc(O)cc1)C(=O)N[C@@H](Cc1ccc(O)cc1)C(=O)N[C@@H](CCCNC(=N)N)C(=O)N[C@@H](Cc1c[nH]c2ccccc12)C(=O)NCCCCCC(N)=O [VII-57-C, Ac-Arg-Tyr-Tyr-Arg-Trp-ε-aminocaproyl-NH2] (Ac-RYYRW[Ahx]-NH2) | 0.95 |  | 37.4 ± 2.64% | 
CCCCCC(=O)N[C@@H](CCCNC(=N)N)C(=O)N[C@@H](Cc1ccc(O)cc1)C(=O)N[C@@H](Cc1ccc(O)cc1)C(=O)N[C@@H](CCCNC(=N)N)C(=O)N[C@@H](Cc1c[nH]c2ccccc12)C(=O)N[C@@H](CCCNC(=N)N)C(N)=O [IV-17-C, Hexanoyl-RYYRWR-NH2] (Hexanoyl-RYYRWR-NH2) |  |  |  | analgesic activity and potentiation of morphine analgesia in vivo [6]: no measurable in vivo activity; potency as antagonist relative to N^1-Phe-nociceptin (1-13)NH2 (human ORL1 [2]; FIG. 2): at least 10 times; stimulation of [35S]GTPγS binding remaining (human ORL1 [2]; at 1 and 10 μM, with 10 nM nociceptin): 20%; IC50 (human ORL1 [3]): 2.6 nM; [35S]GTPγS Binding Percent Stimulation (human ORL1 [5]; Table 1): 18%; agonist/antagonist character at ORL1 (human ORL1 [5]): very low efficacy compound
CC(=O)N[C@@H](CCCNC(=N)N)C(=O)N[C@@H](Cc1ccc([N+](=O)[O-])cc1)C(=O)N[C@@H](Cc1ccc(O)cc1)C(=O)N[C@@H](CCCNC(=N)N)C(=O)N[C@@H](Cc1c[nH]c2ccccc12)C(=O)N[C@@H](CCCNC(=N)N)C(N)=O [VII-23-B, Ac-Arg-Phe(NO2)-Tyr-Arg-Trp-Arg-NH2] (Ac-R[Phe(4-NO2)]YRWR-NH2) | 0.74 |  | 56.6 ± 20.4% | 
CC(=O)Nc1ccc(C[C@H](NC(=O)[C@H](Cc2ccc(O)cc2)NC(=O)[C@H](CCCNC(=N)N)NC(C)=O)C(=O)N[C@@H](CCCNC(=N)N)C(=O)N[C@@H](Cc2c[nH]c3ccccc23)C(=O)N[C@@H](CCCNC(=N)N)C(N)=O)cc1 [VII-77-A, Ac-Arg-Tyr-Phe(4-NHAc)-Arg-Trp-Arg-NH2] (Ac-RY[Phe(4-NH2)](Ac)RWR-NH2) | 0.62 |  | 19 ± 6.92% | 
